Test results: article PMC10053770, “Assessment of the Pharmacokinetics, Disposition, and Duration of Action of the Tumour-Targeting Peptide CEND-1” (International Journal of Molecular Sciences, 2023)
Like-named read-outs stand apart in the source and are kept apart here.

Experiments:
[1] = Single-dose intravenous pharmacokinetics in rats; format: in vivo, rat; conditions: for Vd: read-out: V; for clearance: read-out: Cl_obs (converted)
Procedure: The in vivo pharmacokinetic profile of CEND-1 after a single dose was evaluated in four non-GLP animal studies including Sprague-Dawley rats, Beagle dogs, cynomolgus monkeys and BALB/c mice following the intravenous injection of CEND-1 at various doses ([…]; 1.5, 4.5 and 13.5 mg/kg for mice) (Table 1). Blood samples were collected for pharmacokinetic evaluations pre-dose and at 1, 5, 10, 15 and 30 min, and 1, 2 and 6 h post-dose in rats, dogs and monkeys, and 3, 10, 30 and 90 min, and 4 and 8 h post-dose in mice.
(§1) Plasma CEND-1 was quantified by validated liquid chromatography coupled with a tandem mass spectrometry (LC/MS/MS) assay. Tolbutamide or leuprorelin acetate were used as internal standards. AB Sciex Triple Quad API 5500 (Sciex, Framingham, MA, USA), operated in the positive electrospray ionization (ESI) mode, was used to monitor the precursor to production ion transitions of m/z 495.4→69.9.
(§2) No formal sample size calculation was performed. Samples of 2–12 animals and 31 pancreatic cancer patients were considered acceptable to perform initial pharmacokinetic evaluations. The concentrations of CEND-1 were used to calculate PK parameters by employing a non-compartmental analysis (Phoenix^TM WinNonlin, version 6.1). The linear log trapezoidal algorithm, with a weighting of 1/Y*Y was used for parameter calculations. Mean PK parameters were calculated from individual animals in each treatment group. Concentrations below the LLOQ (if any) were excluded for the calculation of PK parameters. The mean values of PK parameters were calculated using Microsoft Excel version 2010.

[2] = Single-dose intravenous pharmacokinetics in cynomolgus monkeys; format: in vivo; conditions: cynomolgus monkey; for clearance: read-out: Cl_obs (converted); for Vd: read-out: V
Procedure: The in vivo pharmacokinetic profile of CEND-1 after a single dose was evaluated in four non-GLP animal studies including Sprague-Dawley rats, Beagle dogs, cynomolgus monkeys and BALB/c mice following the intravenous injection of CEND-1 at various doses (1, 5 and 50 mg/kg for rats, dogs and monkeys; 1.5, 4.5 and 13.5 mg/kg for mice) (Table 1). Blood samples were collected for pharmacokinetic evaluations pre-dose and at 1, 5, 10, 15 and 30 min, and 1, 2 and 6 h post-dose in rats, dogs and monkeys, and 3, 10, 30 and 90 min, and 4 and 8 h post-dose in mice.
as §1, §2

[3] = Clinical pharmacokinetics in patients with metastatic pancreatic ductal adenocarcinoma; format: in vivo, human; conditions: for Vd: 3.2 mg/kg, read-out: Vz
Procedure: In this study, CEND-1 PK data from up to 28 participants receiving either 1.6 mg/kg (n = 14) and 3.2 mg/kg (n = 14) in the expansion cohort were analysed. Details of this phase I clinical study, conducted in patients with metastatic pancreatic ductal adenocarcinoma receiving CEND-1 in combination with nab-paclitaxel and gemcitabine, are described in detail by Dean et al.. PK parameters were measured following CEND-1 monotherapy (run-in day 1) and combination therapy (cycle 1 day 1 and cycle 6 day 1, if applicable).
In the initial monotherapy run-in phase, single doses of CEND-1 were given one to seven days before the start of the combination chemotherapy. In the combination therapy phase, patients first received an intravenous infusion of nab-paclitaxel (125 mg/m^2) over 30 min (±3 min). CEND-1 was then given intravenously as a slow IV push over 1 min (±30 s). The intravenous infusion of gemcitabine (1000 mg/m^2 over 30 min (±3 min)) was started within 10 min of CEND-1 administration. On all occasions, plasma samples were collected from patients before the CEND-1 infusion and at 3 min (±1 min), 15 min (±3 min), 30 min (±3 min), 1 hour (±5 min), ¾ h (±10 min) and 6/8 h (±10 min) after completion of the infusion.
as §2

[4] = female, Sprague-Dawley rat, F, n=6, 1 mg/kg single IV, plasma LC/MS/MS, non-compartmental, one time point per animal
[5] = female, Sprague-Dawley rat, F, n=6, 5 mg/kg single IV, plasma LC/MS/MS, non-compartmental, one time point per animal
[6] = female, Sprague-Dawley rat, F, n=6, 75 mg/kg single IV, plasma LC/MS/MS, non-compartmental, one time point per animal
[7] = female, Sprague-Dawley rat, F, n=6, single IV, plasma LC/MS/MS, non-compartmental, one time point per animal
[8] = male, Sprague-Dawley rat, M, n=6, 1 mg/kg single IV, plasma LC/MS/MS, non-compartmental, one time point per animal
[9] = male, Sprague-Dawley rat, M, n=6, 5 mg/kg single IV, plasma LC/MS/MS, non-compartmental, one time point per animal
[10] = male, Sprague-Dawley rat, M, n=6, 75 mg/kg single IV, plasma LC/MS/MS, non-compartmental, one time point per animal
[11] = male, Sprague-Dawley rat, M, n=6, single IV, plasma LC/MS/MS, non-compartmental, one time point per animal
[12] = male, M, n=3, 5 mg/kg single IV, plasma LC/MS/MS, non-compartmental, mean (SD)
[13] = male, M, n=3, 50 mg/kg single IV, plasma LC/MS/MS, non-compartmental, mean (SD)
[14] = pancreatic cancer patients, 3.2 mg/kg IV, plasma, Cycle 1 Day 1 with nab-paclitaxel+gemcitabine, mean, N=9
[15] = pancreatic cancer patients, 3.2 mg/kg IV, plasma, Cycle 1 Day 1 with nab-paclitaxel+gemcitabine, mean, N=13
[16] = pancreatic cancer patients, 3.2 mg/kg IV, plasma, Cycle 6 Day 1 with nab-paclitaxel+gemcitabine, N=1
[17] = pancreatic cancer patients, 3.2 mg/kg IV, plasma, Cycle 6 Day 1 with nab-paclitaxel+gemcitabine, mean, N=5
[18] = pancreatic cancer patients, 3.2 mg/kg IV, plasma, Run-In (monotherapy), mean, N=7
[19] = pancreatic cancer patients, 3.2 mg/kg IV, plasma, Run-In (monotherapy), mean, N=8

CC(=O)N[C@H]1CSSC[C@@H](C(N)=O)NC(=O)[C@H](CC(=O)O)NC(=O)[C@@H]2CCCN2C(=O)CNC(=O)[C@H](CCCCN)NC(=O)[C@H](CC(=O)O)NC(=O)CNC(=O)[C@H](CCCNC(=N)N)NC1=O [CEND-1]
Cl_obs ([1]; Sprague-Dawley rat, F, n=6, 1 mg/kg single IV, plasma LC/MS/MS, non-compartmental, one time point per animal): 9.37 mL/min/kg | half-life ([1]; Sprague-Dawley, rat, plasma, rats, single intravenous dose, read-out: average half-life): ~30 min | AUC(0-inf) [1, 4]: 1750 ng·h/mL | C0 [1, 4]: 3980 ng/mL | Vd [1, 4]: 0.201 L/kg | half-life ([1]; female, Sprague-Dawley rat, F, n=6, 1 mg/kg single IV, plasma LC/MS/MS, non-compartmental, one time point per animal, read-out: t1/2 (converted)): 14.9 min | AUC(0-inf) [1, 5]: 9750 ng·h/mL | C0 [1, 5]: 28400 ng/mL | clearance [1, 5]: 8.55 mL/min/kg | Vd [1, 5]: 0.323 L/kg | half-life ([1]; female, Sprague-Dawley rat, F, n=6, 5 mg/kg single IV, plasma LC/MS/MS, non-compartmental, one time point per animal, read-out: t1/2 (converted)): 26.2 min | AUC(0-inf) [1, 6]: 166000 ng·h/mL | Vd [1, 6]: 0.254 L/kg | half-life ([1]; female, Sprague-Dawley rat, F, n=6, 75 mg/kg single IV, plasma LC/MS/MS, non-compartmental, one time point per animal, read-out: t1/2 (converted)): 23.5 min | C0 [1, 7]: 436000 ng/mL | clearance [1, 7]: 7.52 mL/min/kg | AUC(0-inf) [1, 8]: 1770 ng·h/mL | C0 [1, 8]: 4230 ng/mL | clearance [1, 8]: 9.3 mL/min/kg | Vd [1, 8]: 0.64 L/kg | half-life ([1]; male, Sprague-Dawley rat, M, n=6, 1 mg/kg single IV, plasma LC/MS/MS, non-compartmental, one time point per animal, read-out: t1/2 (converted)): 48.3 min | AUC(0-inf) [1, 9]: 9060 ng·h/mL | C0 [1, 9]: 24300 ng/mL | clearance [1, 9]: 9.2 mL/min/kg | Vd [1, 9]: 0.366 L/kg | half-life ([1]; male, Sprague-Dawley rat, M, n=6, 5 mg/kg single IV, plasma LC/MS/MS, non-compartmental, one time point per animal, read-out: t1/2 (converted)): 27.6 min | AUC(0-inf) [1, 10]: 215000 ng·h/mL | Vd [1, 10]: 0.171 L/kg | half-life ([1]; male, Sprague-Dawley rat, M, n=6, 75 mg/kg single IV, plasma LC/MS/MS, non-compartmental, one time point per animal, read-out: t1/2 (converted)): 20.5 min | C0 [1, 11]: 469000 ng/mL | clearance [1, 11]: 5.8 mL/min/kg | half-life ([2]; plasma, male cynomolgus monkeys, IV 5 and 50 mg/kg, read-out: average half-life): ~55 min | AUC(0-inf) [2, 12]: 28200 ng·h/mL | C0 [2, 12]: 55100 ng/mL | clearance [2, 12]: 2.98 mL/min/kg | Vd [2, 12]: 0.204 L/kg | half-life ([2]; male, M, n=3, 5 mg/kg single IV, plasma LC/MS/MS, non-compartmental, mean (SD), read-out: t1/2 (converted)): 53.3 min | AUC(0-inf) [2, 13]: 421000 ng·h/mL | C0 [2, 13]: 602000 ng/mL | clearance [2, 13]: 2.97 mL/min/kg | Vd [2, 13]: 0.162 L/kg | half-life ([2]; male, M, n=3, 50 mg/kg single IV, plasma LC/MS/MS, non-compartmental, mean (SD), read-out: t1/2 (converted)): 57.4 min | Vd ([3]; human, plasma, iv, pancreatic cancer patients, 3.2 mg/kg IV, plasma, Cycle 1 Day 1 with nab-paclitaxel+gemcitabine, mean, N=9): 0.263 L/kg | Vd ([3]; human, plasma, iv, pancreatic cancer patients, 3.2 mg/kg IV, plasma, Run-In (monotherapy), mean, N=7): 0.269 L/kg | Tmax ([3]; human, plasma, iv, patients, run-in day 1, 1.6 and 3.2 mg/kg, read-out: time of peak plasma concentration (first post-dose PK sampling timepoint) (converted)): 3 min | level at 8 h ([3]; human, plasma, patients, run-in day 1, 1.6 and 3.2 mg/kg IV, SD = 317.9, read-out: mean plasma concentration by 8 h post-dose): 439 ng/mL | AUC0-t ([3]; human, pancreatic cancer patients, 3.2 mg/kg IV, plasma, Cycle 6 Day 1 with nab-paclitaxel+gemcitabine, mean, N=5, read-out: AUC0-t): 30600 ng·h/mL | Cmax ([3]; human, pancreatic cancer patients, 3.2 mg/kg IV, plasma, Cycle 6 Day 1 with nab-paclitaxel+gemcitabine, mean, N=5, read-out: Cmax): 25800 ng/mL | Tmax ([3]; human, pancreatic cancer patients, 3.2 mg/kg IV, plasma, Cycle 6 Day 1 with nab-paclitaxel+gemcitabine, mean, N=5, read-out: Tmax): 3.78 min | AUC0-inf/D [3, 14]: 9592 kg·ng·h/mL | AUC(0-inf) [3, 14]: 30,690 h*ng/mL | CL [3, 14]: 1.792 mL/min/kg | t1/2 [3, 14]: 103.5 min | λlast [3, 14]: 0.4082 h⁻¹ | AUC0-t [3, 15]: 28,610 h*ng/mL | AUC0-t/D [3, 15]: 8942 kg·ng·h/mL | Cmax [3, 15]: 24,050 ng/mL | Cmax/D [3, 15]: 7514 kg*ng/mL/m | Tlast [3, 15]: 5.767 h | Tmax [3, 15]: 6.78 min | AUC0-inf/D [3, 16]: 10,440 h*kg*ng/mL | AUC(0-inf) [3, 16]: 33,400 h*ng/mL | CL [3, 16]: 1.6 mL/min/kg | Vz [3, 16]: 0.2209 L/kg | t1/2 [3, 16]: 95.88 min | λlast [3, 16]: 0.4338 h⁻¹ | AUC0-t/D [3, 17]: 9558 kg·ng·h/mL | Cmax/D [3, 17]: 8050 kg*ng/mL/m | Tlast [3, 17]: 4.897 h | AUC0-inf/D [3, 18]: 10,800 h*kg*ng/mL | AUC(0-inf) [3, 18]: 34,560 h*ng/mL | CL [3, 18]: 1.63 mL/min/kg | t1/2 [3, 18]: 117.4 min | λlast [3, 18]: 0.3607 h⁻¹ | AUC0-t [3, 19]: 31,330 h*ng/mL | AUC0-t/D [3, 19]: 9791 kg·ng·h/mL | Cmax [3, 19]: 31,210 ng/mL | Tlast [3, 19]: 6.725 h | Tmax [3, 19]: 7.02 min | plasma half-life ([3]; patients, intravenous administration): ~120 min
